Assay results taken from patent US4260613A, “Pyridoxine derivatives” (Crinos Industria Farmacobiologica S.p.A., priority 1978, dated 1981).

Tests used:
Assay type in all cases: in vivo
mouse = test: Acute toxicity, LD50 per os in the mouse (sole dose, 18 h fasting); conditions: in words, vs 2-(4-isobutylphenyl)-propionic acid
Description: The acute toxicity has been determined by administering the substances per os in a sole dose to the mouse after 18 hours of fasting. The LD50 has been determined according to Litchfield and Wilcoxon (J. Pharmacol. Exp. Ther. 96, 99, 1949).

[1] = tested on: caraganin-edema, normal rat; test: Caraganin-edema test according to Winter et al in the normal rat (anti-inflammatory activity); conditions: 25 mg/kg per os, 3hrs, vs controls
Description: Caraganin-edema test according to Winter et al (Proc. Soc. Exp. Biol. Med., 111, 544, 1962) in the normal rat. The anti-inflammatory activity is expressed as a percentage of inhibition, after 3 and 6 hours, with respect to the controls.

rat = test: Ulcer-causing activity, UD50 per os in the rat (gastric lesions 7 h after treatment); conditions: in words, vs 2-(4-isobutylphenyl)-propionic acid
Description: The ulcer-causing activity has been determined by administering the substances per os to rats which have fasted 18 hours and evaluating the presence of gastric lesions 7 hours after the treatment. The UD50 has been determined according to Litchfield and Wilcoxon (J. Pharmacol. Exp. Ther. 96, 99, 1949).

Cc1ncc(COC(=O)C(C)c2ccc(CC(C)C)cc2)c(CO)c1O (centres unmarked) [2-(4-isobutyl-phenyl)-propionic pyridoxine 5-ester]
toxicity with respect to the free acid (mouse): lower toxicity
ANTI-INFLAMMATORY Inhibition % [1]: 43.6%
ulcer-causing activity with respect to the free acid (rat): lower toxicity and ulcer-causing activity

Cc1ncc(COC(=O)C(C)c2ccc(CC(C)C)cc2)c2c1OC(C)(C)OC2 (centres unmarked) [2-(4-isobutylphenyl)-propionic isopropylidene-pyridoxine 5-ester]
toxicity with respect to the free acid (mouse): lower toxicity
ulcer-causing activity with respect to the free acid (rat): lower toxicity and ulcer-causing activity
